In US12303614B2, “Compositions and methods for improving mechanical properties of a tissue or for regenerating an injured or diseased tissue” (University of Rochester, priority 2019, dated 2025):
Entries after “also recorded” stand apart in the source; their conditions may differ.

Key:
[1] = tested on: HH43 chick embryo calcaneal tendons; assay: Calcaneal tendon elastic modulus by force volume-AFM after in ovo treatment; type: in vivo; settings: HH43 chick embryos, 48 h; for calcaneal tendon elastic modulus relative to controls: single in ovo injection, vs saline
Description: (§1) Fertilized white leghorn eggs (University of Connecticut poultry farm) were incubated at 37° C. under high humidity. For developmental characterizations, eggs were not injected. For other experiments, a single dose of sterile saline (control), 0.2% DMB (rigid paralysis), 0.2% pancuronium bromide (PB) (flaccid paralysis), 0.2% 4-AP (hypermotility), or 0.2% 4-AP and 5 mg BAPN per gram of embryo dry mass (to simultaneously induce hypermotility and inhibition of LOX activity) was injected at the air sac end of an HH43 egg and incubated for another 48 h, as previously described (10). DMB dosage was based on previous studies that paralyzed the embryo without affecting gross development (3). […] At specific timepoints, chick embryos were sacrificed by decapitation and staged based on anatomical features (15). The calcaneal tendon was homogenized in TRIzol LS reagent, snap frozen for protein and enzyme assays, or embedded for cryosectioning.
(§2) Calcaneal tendons of staged embryos were cryoembedded as previously described (10) and cryosectioned at 50 μm thickness.
Force volume-AFM was used to characterize tendon elastic modulus using previously established methods (10). Briefly, tendon cryosections were immersed in PBS to remove O.C.T. A silicon nitride tip probe (˜20 nm radius) with a spring constant of 0.06 N/m (BRUKER, CA) was used on an MFP-3D AFM (ASYLUM RESEARCH, CA) to obtain force curves in a 64×64 2-dimensional array over a 10 μm×10 μm tissue region in the center of the tendon midsubstance with a 1.0 μm indentation trigger point. The sample was indented at 6 μm/s, at which tendon elastic properties were previously characterized with negligible viscous effects (10). Elastic modulus was calculated by fitting force displacement curves at each indentation to the Hertzian model using equations adapted from a previous study (10).

[2] = tested on: HH43 chick embryo calcaneal tendons; assay: Fibrillar collagen content and organization by F-SHG two photon microscopy; type: in vivo; settings: HH43 chick embryos, 48 h
Description: as §1, §2
Tendon cryosections were immersed in Ca^2+/Mg^2+-free phosphate buffered saline (PBS) to remove O.C.T. A 20× water objective imaged a 220×220 μm region in the center of tendon midsubstance in PBS. Collagen was characterized by F-SHG at 800 nm excitation, and signal was collected by a photomultiplier tube using a 405DF30 filter. Background was determined with laser off. Background was subtracted from each F-SHG image using MATLAB (MATHWORKS, MA) and then average pixel intensities of each image were calculated to assess collagen content per unit area.

[3] = tested on: LOX activity; assay: LOX activity assay of calcaneal tendons after in ovo treatment; type: in vivo, chick; settings: HH43 embryos treated in ovo, 48 h; for reduction of LOX activity levels of calcaneal tendons compared to saline controls: p<0.05
Description: as §1
Western blot to semi-quantitatively measure proLOX levels was performed with rabbit anti-proLOX antibody or rabbit anti-β-actin antibody (ABCAM, MA). ProLOX and β-actin levels were quantified by densitometry at ˜50 kDa and ˜40 kDa molecular bands, respectively. LOX activity of each sample was measured using a LOX activity assay kit (ABCAM, MA). Recombinant LOXL2 enzyme (R&D Systems, MN) was used as a positive control for each assay.

[4] = tested on: HH43 chick embryos; assay: Gross development: anatomical staging and leg appearance of treated embryos; type: in vivo
Description: as §1

[5] = tested on: chick embryos; assay: Embryo movement frequency after injection; type: in vivo; settings: within 1 min of injection, lasted 48 h (data not shown)
Description: as §1

[6] = tested on: chick embryos; settings: HH36 to HH44 chick embryos, for at least 24 h, previous studies (14); cited from earlier work
[7] = tested on: HH43 chick embryo calcaneal tendons; assay: Collagen crosslink density analysis (HP/collagen) after paralysis; type: in vivo; settings: HH43 chick embryos, injections at 0 h and 24 h, 48 h of paralysis
Description: Briefly, HH43 chick embryos were either treated with saline (vehicle control), decamethonium bromide (DMB, THERMO FISHER), or pancuronium bromide (PB, THERMO FISHER). Treatments of DMB and PB were performed at 0 h and 24 h by injection through the air-pocket of each egg. After the 48 h of treatments, each embryo was sacrificed by decapitation, was staged, and the calcaneal tendons were dissected for collagen cross-link density analysis. For each biological sample (N=1), 5 tendons were pooled together (5 left calcaneal tendons from 5 chick embryos). In this experiment, collagen crosslink density analysis was performed for biological samples.

[8] = treated at HH43, harvested after 48 h, compared with non-injected HH45
[9] = treated at HH43 for 48 h, N ≥ 6, expected stage HH45

SMILES | increase of calcaneal tendon modulus relative to controls ([1]; hypermotility) [fold] | calcaneal tendon elastic modulus relative to controls [1] | apparent collagen organization [2] | collagen content relative to controls [2] | LOX activity levels in calcaneal tendons compared to controls [3] | gross appearance of legs at harvest [4, 8] | Stage (HH) of embryos at harvest (mean ± standard deviation (std)) [4, 9] [HH] | increase of embryo movement frequency [5] [%] | hypermotility induced by a single injection [6] | reduction of calcaneal tendon modulus relative to controls ([1]; paralysis) [fold] | reduction of LOX activity levels of calcaneal tendons compared to saline controls [3] [fold] | Stage (HH) of embryos at harvest (mean ± standard deviation (std)) ([4]; in vivo) [HH] | gross appearance of legs at harvest ([4]; in vivo) | hydroxylysyl pyridinoline (HP)/collagen ratio compared to saline-treated tendons [7]
Nc1ccncc1 [4-AP, 4-aminopyridine] | 2 | significantly upregulated; also recorded: higher | Neither treatment affected; also recorded: appeared normal | Neither treatment affected | no effects | appeared similar to non-injected HH45 legs | 45 ± 0.4 | 200 | up to 400% | – | – | – | – | –
N#CCCN [BAPN, β-aminopropionitrile] | – | reduced | appeared normal | – | – | appeared similar to non-injected HH45 legs | 45 ± 0.5 | – | – | – | – | – | – | –
C[N+](C)(C)CCCCCCCCCC[N+](C)(C)C [DMB, decamethonium bromide] | – | significantly reduced | Neither treatment affected | Neither treatment affected | significantly reduced | – | – | – | – | 2 | 2 | 45 ± 0.4 | hyperextended digits | lower
CC(=O)O[C@H]1C[C@@H]2CC[C@@H]3[C@H](CC[C@@]4(C)[C@H]3C[C@H]([N+]3(C)CCCCC3)[C@@H]4OC(C)=O)[C@@]2(C)C[C@@H]1[N+]1(C)CCCCC1 [PB, pancuronium bromide] | – | – | – | – | significantly lower | – | – | – | – | – | 2 | – | – | lower
